Assay results published in US12319683B2, “Azabenzimidazole compounds and pharmaceutical” (NIPPON SHINYAKU CO., LTD., priority 2018, dated 2025).
Structures can show the parent of a compound that is named as a salt.

Each compound was assayed on SD female rats (assay: Effect on the increase in intravesical pressure induced by electrical stimulation of the pelvic nerve in anesthetized rats). Details: Rattus norvegicus, iv, 1 h, read-out: Percentage Change (%) Rc of AUC of increase of intravesical pressure (maximum during 1 hour after administration).
Type: in vivo, rat
Protocol: For evaluation of in vivo effect on neurogenic bladder contraction, effects of the test compounds on the increase in intravesical pressure induced by electrical stimulation of the pelvic nerve in rats were determined according to the following method.
SD female rats (Japan SLC, Inc.) were anesthetized by subcutaneous administration of 1200 mg/kg of urethane (Wako Pure Chemical Corporation), and the lower abdomens of the rats were incised in the midline. After the ureters were ligated and cut at locations proximal to the bladder, a cannula (PE-60, BECTON DICKINSON) for cystometry was inserted into the bladder through the external urethral orifice and fixed with sutures. After injecting saline (about 200 μL) via the cannula inserted into the bladder, the other end of the cannula was connected to a pressure transducer to measure intravesical pressure.
The pelvic nerve near the urinary bladder of the rat was gently separated and dissected under stereomicroscope observation and attached to an electrode for nerve stimulation (K2-14015M-PT, BrainScience idea. Co., Ltd.). The peritoneal cavity of the rat was filled with liquid paraffin (26114-75, NACALAI TESQUE, INC.). After the postoperative rest period, an electrical stimulator (SEN-7203, NIHON KOHDEN CORPORATION) was used to stimulate the pelvic nerve to induce increase in intravesical pressure. The stimulation frequency was 8 Hz, the pulse width was 0.3 ms, and the stimulation time was 10 seconds. The voltage of the electrical stimulator was adjusted so that the increase in intravesical pressure was about 50-70% of that at stimulation with 10 V.
The electric stimulation was repeated with an interval of 10 minutes. After the increase of intravesical pressure induced by electric stimulation was stabilized three times or more, a test compound (dosage 0.3 mg/kg), distigmine bromide (dosage 0.03, 0.1 mg/kg) or a vehicle was intravenously administered at 1.0 mL/kg via the catheter placed into femoral vein. The effect of the test compound on increase of intravesical pressure was measured for 1 hour. Saline was used as a vehicle, and the test compound was dissolved in dimethyl sulfoxide before adding to the vehicle. The final concentration of dimethyl sulfoxide was 10%.
The response data (intravesical pressure) were recorded on a personal computer via data collection and analysis system (PowerLab®, ADInstruments) and analyzed using analysis software (LabChart®, ADInstruments). For each electric stimulation, AUC of increase of intravesical pressure (area under the curve of transition of intravesical pressure) was calculated, and percentage change Rc (unit: %) compared to the value (AUC) before the administration of the test compound was calculated according to the following equation (2). In the equation (2), Ab is AUC before administering a test compound, and Aa is AUC after administering a test compound. In addition, the maximum effect observed during 1 hour after administering the test compound (maximum percentage change Rc) was defined as the effect of the test compound. The higher percentage change Rc, the higher effect on enhancement of bladder contraction force and increase of intravesical pressure. Rc=100×(Aa−Ab)/Ab (2)

SMILES	change in vivo at 0.3 mg/kg [%]
CCOc1cc(-c2cc(N(C)CC3(COC)CCCC3)c3[nH]c(-c4cnc(N5[C@@H]6CC[C@H]5C[C@@H](OCC(=O)O)C6)cn4)nc3n2)cc(C(F)(F)F)n1 [Example 15, Sodium {[(1R,3r,5S)-8-(5-{5-[2-ethoxy-6-(trifluoromethyl)pyridin-4-yl]-7-[{[1-(methoxymethyl)cyclopentyl]methyl}(methyl)amino]-1H-imidazo[4,5-b]pyridin-2-yl}pyrazin-2-yl)-8-azabicyclo[3.2.1]octan-3-yl]oxy}acetate]	276

Same assay, conditions: Rattus norvegicus, iv, 1 h; anesthetized SD female rats, pelvic nerve electrical stimulation, test compound 0.3 mg/kg intravenously; read-out: Percentage Change (%) Rc of AUC of increase of intravesical pressure (maximum during 1 hour after administration)

SMILES	change in vivo at 0.3 mg/kg [%]
CCOc1cc(-c2cc(N(C)CC(C)(C)COC)c3[nH]c(-c4cnc(N5CCC(C(=O)O)CC5)cn4)nc3n2)cc(C(F)(F)F)n1 [Example 1, 1-(5-{5-[2-Ethoxy-6-(trifluoromethyl)pyridin-4-yl]-7-[(3-methoxy-2,2-dimethylpropyl)(methyl)amino]-1H-imidazo[4,5-b]pyridin-2-yl}pyrazin-2-yl)piperidine-4-carboxylic acid]	326
CCOc1cc(-c2cc(N(C)CC3(COC)CCCC3)c3[nH]c(-c4cnc(N5CCC(C(=O)O)CC5)cn4)nc3n2)cc(C(F)(F)F)n1 [Example 2, 1-(5-{5-[2-Ethoxy-6-(trifluoromethyl)pyridin-4-yl]-7-[{[1-(methoxymethyl)cyclopentyl]methyl}(methyl)amino]-1H-imidazo[4,5-b]pyridin-2-yl}pyrazin-2-yl)piperidine-4-carboxylic acid]	331
CCOCC1(CN(C)c2cc(-c3cnc(C4CC4)c(C(F)(F)F)c3)nc3nc(-c4cnc(N5CCC(C(=O)O)CC5)cn4)[nH]c23)CCCC1 [Example 3, 1-(5-{5-[6-Cyclopropyl-5-(trifluoromethyl)pyridin-3-yl]-7-[{[1-(ethoxymethyl)cyclopentyl]methyl}(methyl)amino]-1H-imidazo[4,5-b]pyridin-2-yl}pyrazin-2-yl)piperidine-4-carboxylic acid]	311
COCC1(CN(C)c2cc(-c3cc(C4CC4)nc(C(F)(F)F)c3)nc3nc(-c4cnc(N5CCC(OCC(=O)O)CC5)cn4)[nH]c23)CCCC1 [Example 4, {[1-(5-{5-[2-Cyclopropyl-6-(trifluoromethyl)pyridin-4-yl]-7-[{[1-(methoxymethyl)cyclopentyl]methyl}(methyl)amino]-1H-imidazo[4,5-b]pyridin-2-yl}pyrazin-2-yl)piperidin-4-yl]oxy}acetic acid]	123
COCC1(CN(C)c2cc(-c3cnc(C4CC4)c(C(F)(F)F)c3)nc3nc(-c4cnc(N5CCN(CCC(=O)O)CC5)cn4)[nH]c23)CCCCC1 [Example 6, 3-[4-(5-{5-[6-Cyclopropyl-5-(trifluoromethyl)pyridin-3-yl]-7-[{[1-(methoxymethyl)cyclohexyl]methyl}(methyl)amino]-1H-imidazo[4,5-b]pyridin-2-yl}pyrazin-2-yl)piperazin-1-yl]propanoic acid]	571
COCC1(CN(C)c2cc(-c3cnc(C4CC4)c(C(F)(F)F)c3)nc3nc(-c4cnc(N5CCN(CCC(=O)O)C[C@H]5C)cn4)[nH]c23)CCCCC1 [Example 7, 3-[(3R)-4-(5-{5-[6-Cyclopropyl-5-(trifluoromethyl)pyridin-3-yl]-7-[{[1-(methoxymethyl)cyclohexyl]methyl}(methyl)amino]-1H-imidazo[4,5-b]pyridin-2-yl}pyrazin-2-yl)-3-methylpiperazin-1-yl]propanoic acid]	608
COC[C@@H]1CN(c2cnc(-c3nc4nc(-c5cnc(C6CC6)c(C(F)(F)F)c5)cc(N(C)CC5(COC)CCCCC5)c4[nH]3)cn2)CCN1CCC(=O)O [Example 8, 3-[(2S)-4-(5-{5-[6-Cyclopropyl-5-(trifluoromethyl)pyridin-3-yl]-7-[{[1-(methoxymethyl)cyclohexyl]methyl}(methyl)amino]-1H-imidazo[4,5-b]pyridin-2-yl}pyrazin-2-yl)-2-(methoxymethyl)piperazin-1-yl]propanoic acid]	374
COCC1(CN(C)c2cc(-c3cnc(C4CC4)c(C(F)(F)F)c3)nc3nc(-c4ccc(OC5CCN(CC(=O)O)CC5)cc4F)[nH]c23)CCCC1 [Example 10, [4-(4-{5-[6-Cyclopropyl-5-(trifluoromethyl)pyridin-3-yl]-7-[{[1-(methoxymethyl)cyclopentyl]methyl}(methyl)amino]-1H-imidazo[4,5-b]pyridin-2-yl}-3-fluorophenoxy)piperidin-1-yl]acetic acid]	82.6
CCOc1cc(-c2cc(N(C)CC3(COC)CCC3)c3[nH]c(-c4cnc(N5CCC(C(=O)O)CC5)cn4)nc3n2)cc(C(F)(F)F)n1 [Example 11, 1-(5-{5-[2-Ethoxy-6-(trifluoromethyl)pyridin-4-yl]-7-[{[1-(methoxymethyl)cyclobutyl]methyl}(methyl)amino]-1H-imidazo[4,5-b]pyridin-2-yl}pyrazin-2-yl)piperidine-4-carboxylic acid dihydrochloride]	270
CCOCC1(CN(C)c2cc(-c3cnc(C4CC4)c(C(F)(F)F)c3)nc3nc(-c4cnc(N5CCN(CCC(=O)O)C[C@H]5C)cn4)[nH]c23)CCCC1 [Example 14, Sodium 3-[(3R)-4-(5-{5-[6-cyclopropyl-5-(trifluoromethyl)pyridin-3-yl]-7-[{[1-(ethoxymethyl)cyclopentyl]methyl}(methyl)amino]-1H-imidazo[4,5-b]pyridin-2-yl}pyrazin-2-yl)-3-methylpiperazin-1-yl]propanoate]	400
COCC1(CN(C)c2cc(-c3cc(C4CC4)nc(C(F)(F)F)c3)nc3nc(-c4cnc(N5CCN(CCC(=O)O)C[C@H]5C)cn4)[nH]c23)CCCCC1 [Example 16, Sodium 3-[(3R)-4-(5-{5-[2-cyclopropyl-6-(trifluoromethyl)pyridin-4-yl]-7-[{[1-(methoxymethyl)cyclohexyl]methyl}(methyl)amino]-1H-imidazo[4,5-b]pyridin-2-yl}pyrazin-2-yl)-3-methylpiperazin-1-yl]propanoate]	182
COCC1(CN(C)c2cc(-c3cnc(C4CC4)c(C(F)(F)F)c3)nc3nc(-c4cnc(N5CCN(CCC(=O)O)C[C@H]5C)cn4)[nH]c23)CCCC1 [Example 20, Sodium 3-[(3R)-4-(5-{5-[6-Cyclopropyl-5-(trifluoromethyl)pyridin-3-yl]-7-[{[1-(methoxymethyl)cyclopentyl]methyl}(methyl)amino]-1H-imidazo[4,5-b]pyridin-2-yl}pyrazin-2-yl)-3-methylpiperazin-1-yl]propanoate]	249
COCC1(CN(C)c2cc(-c3cc(F)cc(C(F)(F)F)c3)nc3nc(-c4cnc(N5CCN(CC(=O)O)CC5)cn4)[nH]c23)CCC1 [Example 37]	91.2
COCC1(CN(C)c2cc(-c3cc(F)cc(C(F)(F)F)c3)nc3nc(-c4cnc(N5CCC(F)(C(=O)O)CC5)cn4)[nH]c23)CCC1 [Example 38]	98.1
CCOc1ncc(-c2cc(N(C)CC3(COC)CCC3)c3[nH]c(-c4cnc(N5CCC(C(=O)O)CC5)cn4)nc3n2)cc1C(F)(F)F [Example 42]	119
CCOc1ncc(-c2cc(N(C)CC3(COC)CCCC3)c3[nH]c(-c4ccc(N5CCC(C(=O)O)CC5)cc4F)nc3n2)cc1C(F)(F)F [Example 68]	133

Same assay, conditions: anesthetized rats, intravenous; test compound 0.3 mg/kg, distigmine bromide 0.03, 0.1 mg/kg; electrical stimulation of pelvic nerve

SMILES	enhancement effect on bladder contractility
CN(CCCCCCN(C)C(=O)Oc1ccc[n+](C)c1)C(=O)Oc1ccc[n+](C)c1 [distigmine bromide, reference compound]	showed enhancement of bladder contractility

These compounds were tested on SD female rats in the same assay as above. Details: intravenous, 0.1 mg/kg.
Type: in vivo, rat

SMILES	nicotinic side effect (fasciculation)
CN(CCCCCCN(C)C(=O)Oc1ccc[n+](C)c1)C(=O)Oc1ccc[n+](C)c1 [distigmine bromide, reference compound]	observed
